# From BindingDB's records for doi:10.3109/14756361003691860 (Tarbiat Modares University, 2010)
# Target: Acetylcholinesterase (Homo sapiens, UniProt P22303)
# Test: AChE Inhibition Assay
# Settings: pH 7.4; 37 °C
# Procedure: The reaction was carried out at 37°C in 70 mM phosphate buffer (Na2HPO4/NaH2PO4, pH 7.4) containing the enzyme (20 μl volume, diluted 100 times in phosphate buffer, pH 7.4), DTNB (5,5-dithiobis(2-nitrobenzoic acid)) (10−4M concentration) and ATCh (1.35 × 10−4M concentration). The absorbance change at 37°C was monitored with the spectrophotometer at 412 nm for 3 min. and three replicates were run in each experiment.
# Sequence of Acetylcholinesterase (P22303 whole entry): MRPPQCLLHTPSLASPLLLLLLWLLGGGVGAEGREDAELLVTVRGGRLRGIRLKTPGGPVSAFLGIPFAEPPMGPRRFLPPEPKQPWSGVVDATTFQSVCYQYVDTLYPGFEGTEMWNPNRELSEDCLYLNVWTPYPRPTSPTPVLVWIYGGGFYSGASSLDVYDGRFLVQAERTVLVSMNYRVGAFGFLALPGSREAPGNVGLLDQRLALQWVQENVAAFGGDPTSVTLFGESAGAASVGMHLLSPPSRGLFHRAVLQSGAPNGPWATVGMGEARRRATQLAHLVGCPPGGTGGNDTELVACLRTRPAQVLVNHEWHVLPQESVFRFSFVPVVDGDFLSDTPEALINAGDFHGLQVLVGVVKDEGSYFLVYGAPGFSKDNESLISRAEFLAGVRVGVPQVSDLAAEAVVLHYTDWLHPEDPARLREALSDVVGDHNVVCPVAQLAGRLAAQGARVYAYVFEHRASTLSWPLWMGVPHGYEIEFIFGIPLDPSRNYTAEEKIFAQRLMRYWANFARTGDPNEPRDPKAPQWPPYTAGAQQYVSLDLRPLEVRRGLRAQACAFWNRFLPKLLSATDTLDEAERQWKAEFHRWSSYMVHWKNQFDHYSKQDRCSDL
row,SMILES,IC50 [mM]
1,"O=P(O)(O)CN1CCCN(CP(=O)(O)O)CC1 [Homopiperazine-1,4-bis(methylenephosphonic acid) (11)]",28.7
2,CCCCC(CC)CN(CP(=O)(O)O)CP(=O)(O)O (stereo unspecified) [N-2-Ethyl hexyliminobis(methylenephosphonic acid) (6)],9.48
3,O=P(O)(O)CN(CCc1ccccc1)CP(=O)(O)O [N-2-Phenyl ethyliminobis(methylenephosphonic acid) (8)],11
4,O=P(O)(O)CN(Cc1ccccc1)CP(=O)(O)O [N-Benzyliminobis(methylenephosphonic acid) (7)],11.9
5,O=P(O)(O)CN(CP(=O)(O)O)C1CCCCC1 [N-Cyclohexyliminobis(methylenephosphonic acid) (10)],9.96
6,O=P(O)(O)CN(CP(=O)(O)O)C1CCCC1 [N-Cyclopentyliminobis(methylenephosphonic acid) (9)],11.1
7,CCN(CP(=O)(O)O)CP(=O)(O)O [N-Ethyliminobis(methylenephosphonic acid) (2)],22.1
8,CC(C)N(CP(=O)(O)O)CP(=O)(O)O [N-Isopropyliminobis(methylenephosphonic acid) (5)],9.11
9,CN(CP(=O)(O)O)CP(=O)(O)O [N-Methyliminobis(methylenephosphonic acid) (1)],28.1
10,CCCCCN(CP(=O)(O)O)CP(=O)(O)O [N-Pentyliminobis(methylenephosphonic acid) (4)],11.7
11,CCCN(CP(=O)(O)O)CP(=O)(O)O [N-Propyliminobis(methylenephosphonic acid) (3)],12.7
